Consider one molecule from patent US20220000786A1, “PHARMACEUTICAL PREPARATION” (KOWA COMPANY, LTD., priority 2018, published 2022).

The data set in a line: Examination on stability: storage at 40° C. and 75% RH for 1 month, state of sample and composition changes. Type of data set: physicochemical. The procedure:
Samples 1-1 to 1-4 as shown below were prepared and stored at 40° C. and […] relative humidity (RH) for 1 month.
Pemafibrate as it was placed in a glass vessel with a lid opened, and labeled as Sample 1-1.
Aminoalkyl methacrylate copolymer E (EUDRAGIT EPO: Evonick Rohm GmbH) as it was placed in a glass vessel with a lid opened, and labeled as Sample 1-2.
Aminoalkyl methacrylate copolymer E (EUDRAGIT EPO: Evonick Rohm GmbH) was mixed with pemafibrate in a ratio of 1 part by mass to 1 part by mass of pemafibrate to obtain a mixture. The mixture was placed in a glass vessel with a lid opened, and labeled as Sample 1-3.
Aminoalkyl methacrylate copolymer E (EUDRAGIT EPO: Evonick Röhm GmbH) was mixed with pemafibrate in a ratio of 1 part by mass to 1 part by mass of pemafibrate to obtain a mixture. The mixture was taken in an amount of 0.25 g into a glass bottle (a bottle No. 2K, manufactured by ISOYA GLASS INDUSTRY) and closed with a lid, and labeled as Sample 1-4.

For `CC[C@@H](Oc1cccc(CN(CCCOc2ccc(OC)cc2)c2nc3ccccc3o2)c1)C(=O)O` [Sample 1-1, (2R)-2-[3-([1,3-Benzoxazol-2-yl[3-(4-methoxyphenoxy)propyl]amino]methyl)phenoxy]butanoic acid], the “Change of state / presence or absence of composition changes after storage” value (1 month, start of storage compared with 1 month) is reported as “maintained the same state”. Moreover, the “State of mixture, 1 month later” value (after storage for 1 month, glass vessel with lid opened (1-1 to 1-3) or closed glass bottle (1-4)) was “White powder”. For the same molecule, the “State of mixture, immediately after the start of storage” value (start of storage, glass vessel with lid opened (1-1 to 1-3) or closed glass bottle (1-4)) is on record as “White powder”.
